Test results reported in PubChem BioAssay (NCI).
“And” between values parts separate entries of the source, which are not always exact repeats. Equal values may be shown once.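 How tested: cells in 96-well plates exposed to compound for 48 hours at five concentrations. Here, GI50 denotes the concentration required for 50% inhibition of growth. TGI is the concentration that stops growth completely.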

How the values were obtained:
Experiment in all cases: NCI anticancer screen, dose series, 48 h
A498 renal = test system: A498 renal
A549 NSCLC = test system: A549 NSCLC
HCT-116 colon = test system: HCT-116 colon
IGROV1 ovarian = test system: IGROV1 ovarian
LOX IMVI melanoma = test system: LOX IMVI melanoma
MDA-N = test system: MDA-N
OVCAR-3 ovarian = test system: OVCAR-3 ovarian
SF-268 CNS = test system: SF-268 CNS
SK-MEL-5 melanoma = test system: SK-MEL-5 melanoma
SN12C renal = test system: SN12C renal
SW-620 colon = test system: SW-620 colon
U251 CNS = test system: U251 CNS

Row | SMILES | TGI (A498 renal) | TGI (A549 NSCLC) | TGI (HCT-116 colon) | TGI (IGROV1 ovarian) | TGI (LOX IMVI melanoma) | TGI (MDA-N) | TGI (OVCAR-3 ovarian) | TGI (SF-268 CNS) | TGI (SK-MEL-5 melanoma) | TGI (SN12C renal) | TGI (SW-620 colon) | TGI (U251 CNS) | GI50 (SW-620 colon)
1 | C[N+](C)(CCO)CCN1c2ccccc2Sc2ccccc21 | > 10 µM | > 10 µM | > 10 µM | > 10 µM | > 10 µM | > 10 µM | > 10 µM | > 10 µM | > 10 µM | > 10 µM | > 10 µM | > 10 µM | –
2 | Cc1nnc2n1N=C(c1cc(F)c(Cl)cc1Cl)/C(=C/c1ccc3c(c1)OCO3)S2 | > 100 µM | > 100 µM | > 100 µM | > 100 µM | > 100 µM | > 100 µM | > 100 µM | > 100 µM | > 100 µM | > 100 µM | > 100 µM | > 100 µM | –
3 | COc1ccc(C2=NN(C(=O)c3cccnc3)C(O)(c3cc(F)c(Cl)cc3Cl)C2)cc1OC (stereo not given) | – | > 100 µM | 29.2 µM | 30.5 µM | 27.2 µM | 90 µM | 27.6 µM | 39.8 µM | 25 µM | 34.7 µM | 69.8 µM | 29.1 µM | –
4 | COc1ccc(C2C(C=O)C(N3CCN(C)CC3)=Nc3nc4ccccc4n32)cc1 (stereo not given) | 29.1 µM | 38.5 µM | 29.8 µM | 31.7 µM | 34.1 µM | – | 40.5 µM | 51.6 µM | 31.5 µM | 40.9 µM | 65.9 µM | 39.3 µM | –
5 | NC(CC(=O)O)(Cc1ccccc1)C(=O)O (stereo not given) | > 100 µM | > 100 µM | > 100 µM | > 100 µM | > 100 µM | > 100 µM | > 100 µM | – | > 100 µM | > 100 µM | > 100 µM | > 100 µM | –
6 | O=C(NNC(=O)c1nsc2ccccc12)c1ccc(Cl)cc1 | – | 45.9 µM | 39.2 µM | > 100 µM | 36.5 µM | – | 36.6 µM | 41.3 µM | 59.2 µM | 33.7 µM | > 100 µM | 33.7 µM | –
7 | Cc1ccc(SSCCCCCS(=O)O)cc1 | 52 µM | – | 28.4 µM | – | 30.9 µM | – | 74.7 µM | 36.1 µM | – | 49 µM | – | 25.7 µM | –
8 | COc1ccc(C)cc1Nc1nnc(-c2ccc(N)cc2)s1 | > 100 µM | > 100 µM | > 100 µM | > 100 µM | > 100 µM | > 100 µM | > 100 µM | > 100 µM | > 100 µM | > 100 µM | > 100 µM | – | –
9 | CN(C)CCCN1c2ccccc2CCc2cc([N+](=O)[O-])ccc21 | 61.4 µM and 25.8 µM | 70.2 µM and 37.7 µM | 41 µM and 29.7 µM | 53.2 µM and 29.8 µM | 37.2 µM and 28.2 µM | 45.3 µM and 29.1 µM | 48.4 µM and 34.8 µM | 52.5 µM and 28.8 µM | 31.2 µM and 25.7 µM | 60.9 µM and 30.4 µM | > 100 µM and 32.6 µM | 64.2 µM and 32.9 µM | 37.2 µM and 16.3 µM
10 | CCOC(=O)c1c(CN2CCCC2)n(-c2ccccc2)c2cc(Br)c(OC)cc12 | 19.5 µM | 28.8 µM | 26.5 µM | 45.6 µM | 27.5 µM | > 100 µM | 61.2 µM | > 100 µM | 25.3 µM | > 100 µM | 73.9 µM | 39.1 µM | –
11 | COc1cc2c(cc1OC)-c1cc3ccc(OC)c(OC)c3c[n+]1CC2 | – | > 100 µM | > 100 µM | > 100 µM | – | > 100 µM | > 100 µM | > 100 µM | > 100 µM | > 100 µM | > 100 µM | > 100 µM | –
